From patent publication US20110104144A1, “METHODS FOR TREATING CUTANEOUS LUPUS USING AMINOISOINDOLINE COMPOUNDS” (CELGENE CORPORATION, priority 2005, published 2011) come the findings set out here.

Common to all, as to type: cell-based, Human
One test concerns VCAM. The experiment in a line: HUVEC cell surface expression of VCAM by flow cytometry. To be noted: TNF-α stimulated, 10 μM, FIG. 5. Here is the method:
(§1) A) Materials. Human Umbilical Vein Endothelial Cells (HUVEC) sent from LifeBank, were tested in Experiments A-K with several adhesion molecules. […]
In general terms: Flow cytometry measures light scatter and fluorescence of single cells or particles in a stream.

For a further test, the system named is VE-Cadherin. Kind of test: HUVEC cell surface expression of VE-Cadherin (CD144) by flow cytometry. To be noted: 10 μM, FIG. 4. Here is the method:
(§2) A) Materials. Human Umbilical Vein Endothelial Cells (HUVEC) sent from LifeBank, were tested in Experiments A-K with several adhesion molecules. The adhesion molecules tested were CD51/CD61FITC (obtained from BD PharMingen, San Diego, Calif.; Catalog No. 555505), ICAM-1 PE also known as CD54 (obtained from BD PharMingen, San Diego, Calif.; Catalog No. 555511), ICAM-2 also known as CD102 (obtained from Research Diagnostics Inc., Concord, Mass.; Catalog No. RDI-CBL539FT), VCAM-1 (obtained from BD PharMingen, San Diego, Calif.; Catalog No. 555647), P-Selectin FITC (obtained from R&D Systems, Inc., Minneapolis, Minn.; Catalog No. BBA34), E-Selectin FITC (obtained from R&D Systems, Inc., Minneapolis, Minn.; Catalog No. BBA21), HLA Class I FITC (obtained from BD PharMingen, San Diego, Calif.; Catalog No. 555553), HLA Class II PE (obtained from BD PharMingen, San Diego, Calif.; Catalog No. 555558), CD44 FITC (obtained from BD PharMingen, San Diego, Calif.; Catalog No. 347943), CD144 (Cadherin VE) (obtained from CHEMICON International, Inc., Temecula, Calif.; Catalog No. MAB1989), IgG2a FITC (obtained from BD PharMingen, San Diego, Calif.; Cat #556652), Ms IgG2a (obtained from CHEMICON International, Inc., Temecula, Calif.; Cat. No. PP102), IgG1 FITC (obtained from BD PharMingen, San Diego, Calif.; Cat. No. 349041) and IgG1 PE (obtained from BD PharMingen, San Diego, Calif.; Cat. No. 349043).
(§3) Compound (1) ((+)-2-[1-(3-ethoxy-4-methoxyphenyl)-2-methylsulfonylethyl]-4-acetylaminoisoindoline-1,3-dione) and Compound (2) (4-(amino)-2-(2,6-dioxo(3-piperidyl))-isoindoline-1,3-dione) were obtained according to the preparation procedures disclosed herein. 16,16-Dimethyl-PGE2 (hereinafter PGE2) was obtained from BIOMOL International, L.P. (Plymouth Meeting, Pa.; Catalog No. PG-021). TNF-αwas obtained from Pierce Biotechnology (Rockford, Ill.; Catalog No. RTNFA 10).
(§4) B) Methods. […]

The next test deals with CD44. The experiment in a line: HUVEC cell surface expression of CD44 by flow cytometry. The following applies: 10 μM, FIG. 4. Here is the method:
as §2, §3, §4

A further test deals with ICAM-1. The experiment in a line: HUVEC cell surface expression of ICAM-1 by flow cytometry. To be noted: TNF-α stimulated, 10 μM, FIG. 5. Here is the method:
as §1

Take `CCOc1cc(C(CS(C)(=O)=O)N2C(=O)c3cccc(NC(C)=O)c3C2=O)ccc1OC` (single isomer, unassigned; (+)) [Compound (1), (+)-2-[1-(3-ethoxy-4-methoxyphenyl)-2-methylsulfonylethyl]-4-acetylaminoisoindoline-1,3-dione]: the “decrease of VCAM expression” value in the test on VCAM was determined as 30%. In addition, in the test with VE-Cadherin, the “TNF-α-stimulated cell surface expression of VE-Cadherin” value is recorded as “unaffected”. Moreover, the “inhibition of TNF-α-stimulated cell surface expression of CD44” value with CD44 was “approximately 30%”. In addition, the “increase of ICAM-1 cell surface expression” value in the test with ICAM-1 was “approximately 35%”.
